# Measurements from patent US20240158446A1, “CYCLIC COMPOUND HAVING SELECTIVE INHIBITORY ACTION ON KRAS OVER HRAS AND NRAS” (CHUGAI SEIYAKU KABUSHIKI KAISHA, priority 2021, published 2024).
# Where a SMILES comes first, the peptide text is derived from it. Bridges are numbered along the chain shown (N, C = ends). [ ]: non-standard residue; d: D form. The star is where a group is joined. hPhe(3-Cl-4-CF3) = N[C@@H](CCc1ccc(C(F)(F)F)c(Cl)c1)C(=O)O; NEtPhe(4-Me) = CCN[C@@H](Cc1ccc(C)cc1)C(=O)O; NMeAbu(4,4,4-F3) = CN[C@@H](CC(F)(F)F)C(=O)O; NMePhe(4-Me) = CN[C@@H](Cc1ccc(C)cc1)C(=O)O; NMeGly(cPent) = CN[C@H](C(=O)O)C1CCCC1; Hyp = O=C(O)[C@@H]1C[C@@H](O)CN1; NMeF = CN[C@@H](Cc1ccccc1)C(=O)O; NMeI = CC[C@H](C)[C@H](NC)C(=O)O; NMeD = CN[C@@H](CC(=O)O)C(=O)O; NMeL = CN[C@@H](CC(C)C)C(=O)O; NMeS = CN[C@@H](CO)C(=O)O; Morpholide = C1CN(*)CCO1; NMeA = CN[C@@H](C)C(=O)O; NMeAib = CNC(C)(C)C(=O)O; Nle = CCCC[C@H](N)C(=O)O; Piperidide = C1CCN(*)CC1; Ac5c = NC1(C(=O)O)CCCC1; Aze = O=C(O)[C@@H]1CCN1; NEtG = CCNCC(=O)O; Sar = CNCC(=O)O
# How the values were obtained:
# [1] = biological target: GDP-bound KRAS wild-type protein (Homo sapiens, UniProt P01116); assay: Binding to KRAS by surface plasmon resonance (SPR), Single Cycle Kinetics; conditions: SPR Single Cycle Kinetics, GDP-bound KRAS wild-type protein, 1:1 binding model; read-out: KRAS KD
# Chain of GDP-bound KRAS wild-type protein (P01116 whole entry): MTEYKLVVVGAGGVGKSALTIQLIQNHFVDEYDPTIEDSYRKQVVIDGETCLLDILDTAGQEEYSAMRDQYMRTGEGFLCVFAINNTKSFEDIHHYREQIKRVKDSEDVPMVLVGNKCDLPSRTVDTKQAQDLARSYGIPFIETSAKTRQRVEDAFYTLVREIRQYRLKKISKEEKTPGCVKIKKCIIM
# [2] = biological target: GDP-bound HRAS wild-type protein (Homo sapiens, UniProt P01112); assay: Binding to HRAS by surface plasmon resonance (SPR), Single Cycle Kinetics; conditions: SPR, GDP-bound HRAS wild-type protein vs GDP-bound KRAS wild-type protein
# Chain of GDP-bound HRAS wild-type protein (P01112 whole entry): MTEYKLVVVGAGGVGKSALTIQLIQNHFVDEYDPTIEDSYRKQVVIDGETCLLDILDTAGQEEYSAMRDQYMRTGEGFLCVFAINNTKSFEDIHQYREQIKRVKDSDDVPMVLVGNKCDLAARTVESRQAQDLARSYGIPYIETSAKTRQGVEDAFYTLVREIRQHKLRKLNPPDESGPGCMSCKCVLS
# [3] = biological target: GDP-bound NRAS wild-type protein (Homo sapiens, UniProt P01111); assay: Binding to NRAS by surface plasmon resonance (SPR), Single Cycle Kinetics; conditions: SPR, GDP-bound NRAS wild-type protein vs GDP-bound KRAS wild-type protein
# Chain of GDP-bound NRAS wild-type protein (P01111 whole entry): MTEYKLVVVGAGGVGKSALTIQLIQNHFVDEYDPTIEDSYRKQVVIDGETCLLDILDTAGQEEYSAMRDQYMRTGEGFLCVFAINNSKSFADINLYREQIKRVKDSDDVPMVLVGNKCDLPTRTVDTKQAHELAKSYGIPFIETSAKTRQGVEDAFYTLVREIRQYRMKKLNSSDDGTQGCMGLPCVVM
Kd [1],SMILES,HRAS/KRAS (ratio of KD value for HRAS to KD value for KRAS) [2],NRAS/KRAS (ratio of KD value for NRAS to KD value for KRAS) [3]
2.4 nM,CC[C@H](C)[C@@H]1NC(=O)[C@H](CC(C)C)N(C)C(=O)C[C@@H](C(=O)N2CCOCC2)N(C)C(=O)[C@H](C2CCCC2)N(C)C(=O)C2(CCCC2)NC(=O)[C@@H]2CCCN2C(=O)[C@H](CCc2ccc(C(F)(F)F)c(Cl)c2)NC(=O)CN(CC)C(=O)[C@H](Cc2ccc(C)cc2)N(CC)C(=O)CN(C)C(=O)CN(C)C1=O [PP0028] ([NMeL]I[Sar][Sar][NEtPhe(4-Me)][NEtG][hPhe(3-Cl-4-CF3)]P[Ac5c][NMeGly(cPent)][NMeD]-Morpholide; lactam N-11),C (A compound having a KD ratio of 0.1 or more and less than 3 is denoted as C),C (A compound having a KD ratio of 0.1 or more and less than 3 is denoted as C)
7 nM,CC[C@H](C)[C@@H]1NC(=O)[C@H](CC(C)C)N(C)C(=O)C[C@@H](C(=O)N2CCOCC2)N(C)C(=O)[C@H](C2CCCC2)N(C)C(=O)C2(CCCC2)NC(=O)[C@@H]2CCCN2C(=O)[C@H](CCc2ccc(C(F)(F)F)c(Cl)c2)NC(=O)CN(CC)C(=O)[C@H](Cc2ccc(C)cc2)N(C)C(=O)CN(CC)C(=O)CN(C)C1=O [PP0029] ([NMeL]I[Sar][NEtG][NMePhe(4-Me)][NEtG][hPhe(3-Cl-4-CF3)]P[Ac5c][NMeGly(cPent)][NMeD]-Morpholide; lactam N-11),C (A compound having a KD ratio of 0.1 or more and less than 3 is denoted as C),C (A compound having a KD ratio of 0.1 or more and less than 3 is denoted as C)
7.7 nM,CC[C@H](C)[C@@H]1NC(=O)[C@H](CC(C)C)N(C)C(=O)C[C@@H](C(=O)N2CCOCC2)N(C)C(=O)[C@H](C2CCCC2)N(C)C(=O)C2(CCCC2)NC(=O)[C@@H]2CCCN2C(=O)[C@H](CCc2ccc(C(F)(F)F)c(Cl)c2)NC(=O)CN(CC)C(=O)[C@H](Cc2ccc(C)cc2)N(CC)C(=O)CN(CC)C(=O)CN(C)C1=O [PP0030] ([NMeL]I[Sar][NEtG][NEtPhe(4-Me)][NEtG][hPhe(3-Cl-4-CF3)]P[Ac5c][NMeGly(cPent)][NMeD]-Morpholide; lactam N-11),C (A compound having a KD ratio of 0.1 or more and less than 3 is denoted as C),C (A compound having a KD ratio of 0.1 or more and less than 3 is denoted as C)
0.18 nM,CC[C@H](C)[C@@H]1NC(=O)[C@H](C)N(C)C(=O)C[C@@H](C(=O)N2CCOCC2)N(C)C(=O)[C@H](C2CCCC2)N(C)C(=O)C2(CCCC2)NC(=O)[C@@H]2CCCN2C(=O)[C@H](CCc2ccc(C(F)(F)F)c(Cl)c2)NC(=O)CN(C)C(=O)[C@H](Cc2ccc(C)cc2)N(CC)C(=O)CN(C)C(=O)CN(C)C1=O [PP0031] ([NMeA]I[Sar][Sar][NEtPhe(4-Me)][Sar][hPhe(3-Cl-4-CF3)]P[Ac5c][NMeGly(cPent)][NMeD]-Morpholide; lactam N-11),C (A compound having a KD ratio of 0.1 or more and less than 3 is denoted as C),B (a compound having 3 or more and less than 10 is denoted as B)
0.37 nM,"CC[C@H](C)[C@@H]1NC(=O)[C@H](CC(F)(F)F)N(C)C(=O)C[C@@H](C(=O)N2CCOCC2)N(C)C(=O)[C@H](C2CCCC2)N(C)C(=O)C2(CCCC2)NC(=O)[C@@H]2CCCN2C(=O)[C@H](CCc2ccc(C(F)(F)F)c(Cl)c2)NC(=O)CN(C)C(=O)[C@H](Cc2ccc(C)cc2)N(CC)C(=O)CN(C)C(=O)CN(C)C1=O [PP0032] ([NMeAbu(4,4,4-F3)]I[Sar][Sar][NEtPhe(4-Me)][Sar][hPhe(3-Cl-4-CF3)]P[Ac5c][NMeGly(cPent)][NMeD]-Morpholide; lactam N-11)",C (A compound having a KD ratio of 0.1 or more and less than 3 is denoted as C),C (A compound having a KD ratio of 0.1 or more and less than 3 is denoted as C)
7.6 nM,CC[C@H](C)[C@@H]1NC(=O)[C@H](CC(C)C)N(C)C(=O)C[C@@H](C(=O)N2CCOCC2)N(C)C(=O)[C@H](C2CCCC2)N(C)C(=O)C2(CCCC2)NC(=O)[C@@H]2CCCN2C(=O)[C@H](CCc2ccc(C(F)(F)F)c(Cl)c2)NC(=O)CN(C)C(=O)[C@H](Cc2ccc(C)cc2)N(C)C(=O)[C@H](CO)N(C)C(=O)CN(C)C1=O [PP0037] ([NMeL]I[Sar][NMeS][NMePhe(4-Me)][Sar][hPhe(3-Cl-4-CF3)]P[Ac5c][NMeGly(cPent)][NMeD]-Morpholide; lactam N-11),C (A compound having a KD ratio of 0.1 or more and less than 3 is denoted as C),C (A compound having a KD ratio of 0.1 or more and less than 3 is denoted as C)
0.17 nM,CC[C@H](C)[C@@H]1NC(=O)[C@H](CC(C)C)N(C)C(=O)C[C@@H](C(=O)N2CCOCC2)N(C)C(=O)[C@H](C2CCCC2)N(C)C(=O)C2(CCCC2)NC(=O)[C@@H]2CCCN2C(=O)[C@H](CCc2ccc(C(F)(F)F)c(Cl)c2)NC(=O)CN(C)C(=O)[C@H](Cc2ccccc2)N(C)C(=O)CN(C)C(=O)CN(C)C1=O [PP0039] ([NMeL]I[Sar][Sar][NMeF][Sar][hPhe(3-Cl-4-CF3)]P[Ac5c][NMeGly(cPent)][NMeD]-Morpholide; lactam N-11),C (A compound having a KD ratio of 0.1 or more and less than 3 is denoted as C),C (A compound having a KD ratio of 0.1 or more and less than 3 is denoted as C)
0.12 nM,CCO[C@@H]1C[C@H]2C(=O)NC3(CCCC3)C(=O)N(C)[C@@H](C3CCCC3)C(=O)N(C)[C@H](C(=O)N3CCOCC3)CC(=O)N(C)[C@@H](CC(C)C)C(=O)N[C@@H]([C@@H](C)CC)C(=O)N(C)CC(=O)N(C)CC(=O)N(CC)[C@@H](Cc3ccc(C)cc3)C(=O)N(C)CC(=O)N[C@@H](CCc3ccc(C(F)(F)F)c(Cl)c3)C(=O)N2C1 [PP0042] ([NMeL]I[Sar][Sar][NEtPhe(4-Me)][Sar][hPhe(3-Cl-4-CF3)][Hyp](Et)[Ac5c][NMeGly(cPent)][NMeD]-Morpholide; lactam N-11),C (A compound having a KD ratio of 0.1 or more and less than 3 is denoted as C),C (A compound having a KD ratio of 0.1 or more and less than 3 is denoted as C)
0.87 nM,CC[C@H](C)[C@@H]1NC(=O)[C@H](CC(C)C)N(C)C(=O)C[C@@H](C(=O)N2CCOCC2)N(C)C(=O)[C@H]([C@@H](C)CC)N(C)C(=O)C2(CCCC2)NC(=O)[C@@H]2CCCN2C(=O)[C@H](CCc2ccc(C(F)(F)F)c(Cl)c2)NC(=O)CN(C)C(=O)[C@H](Cc2ccc(C)cc2)N(CC)C(=O)CN(C)C(=O)CN(C)C1=O [PP0043] ([NMeL]I[Sar][Sar][NEtPhe(4-Me)][Sar][hPhe(3-Cl-4-CF3)]P[Ac5c][NMeI][NMeD]-Morpholide; lactam N-11),C (A compound having a KD ratio of 0.1 or more and less than 3 is denoted as C),C (A compound having a KD ratio of 0.1 or more and less than 3 is denoted as C)
2.3 nM,CC[C@H](C)[C@@H]1NC(=O)[C@H](CC(C)C)N(C)C(=O)C[C@@H](C(=O)N2CCOCC2)N(C)C(=O)[C@H](CC(C)C)N(C)C(=O)C2(CCCC2)NC(=O)[C@@H]2CCCN2C(=O)[C@H](CCc2ccc(C(F)(F)F)c(Cl)c2)NC(=O)CN(C)C(=O)[C@H](Cc2ccc(C)cc2)N(CC)C(=O)CN(C)C(=O)CN(C)C1=O [PP0045] ([NMeL]I[Sar][Sar][NEtPhe(4-Me)][Sar][hPhe(3-Cl-4-CF3)]P[Ac5c][NMeL][NMeD]-Morpholide; lactam N-11),C (A compound having a KD ratio of 0.1 or more and less than 3 is denoted as C),C (A compound having a KD ratio of 0.1 or more and less than 3 is denoted as C)

SMILES,Kd [1],HRAS/KRAS (ratio of KD value for HRAS to KD value for KRAS) [2],NRAS/KRAS (ratio of KD value for NRAS to KD value for KRAS) [3]
CCCC[C@@H]1NC(=O)[C@H](CCc2ccc(C(F)(F)F)c(Cl)c2)NC(=O)CN(C)C(=O)[C@H](Cc2ccc(C)cc2)N(C)C(=O)[C@@H]2CCN2C(=O)[C@H](C)N(C)C(=O)[C@H]([C@@H](C)CC)NC(=O)[C@H](CC(C)C)N(C)C(=O)C[C@@H](C(=O)N2CCCCC2)N(C)C(=O)[C@H](CC(C)C)NC(=O)C(C)(C)N(C)C1=O [PP0047] ([NMeL]I[NMeA][Aze][NMePhe(4-Me)][Sar][hPhe(3-Cl-4-CF3)][Nle][NMeAib]L[NMeD]-Piperidide; lactam N-11),18 nM,C (A compound having a KD ratio of 0.1 or more and less than 3 is denoted as C),C (A compound having a KD ratio of 0.1 or more and less than 3 is denoted as C)
CCCC[C@@H]1NC(=O)[C@H](CCc2ccc(C(F)(F)F)c(Cl)c2)NC(=O)CN(C)C(=O)[C@H](Cc2ccc(C)cc2)N(CC)C(=O)[C@@H]2CCN2C(=O)[C@H](C)N(C)C(=O)[C@H]([C@@H](C)CC)NC(=O)[C@H](CC(C)C)N(C)C(=O)C[C@@H](C(=O)N2CCCCC2)N(C)C(=O)[C@H](CC(C)C)NC(=O)C(C)(C)N(C)C1=O [PP0048] ([NMeL]I[NMeA][Aze][NEtPhe(4-Me)][Sar][hPhe(3-Cl-4-CF3)][Nle][NMeAib]L[NMeD]-Piperidide; lactam N-11),63 nM,C (A compound having a KD ratio of 0.1 or more and less than 3 is denoted as C),C (A compound having a KD ratio of 0.1 or more and less than 3 is denoted as C)
